Assay results published in PMC12948223, “HSP70 Interactome‐Mediated Proteolysis Targeting Chimera (HSP70‐PROTAC) for Ferroptosis‐Driven Cancer Treatment” (Advanced Science, 2025).

What was measured:
GPX4 = target: T1, GPX4 (Homo sapiens, UniProt P36969); assay: Ubiquitination assay of GPX4 in HT1080 cells; assay type: cell-based; parameters: determine the changes in the endogenous levels of GPX4 by western blot assay; endogenous in cells; host or cells: HT1080 fibrosarcoma cells, including siRNA-knockdown derivatives; conditions: 1 µM, 12 h
T1 sequence (P36969 1-170 isoform P36969-2): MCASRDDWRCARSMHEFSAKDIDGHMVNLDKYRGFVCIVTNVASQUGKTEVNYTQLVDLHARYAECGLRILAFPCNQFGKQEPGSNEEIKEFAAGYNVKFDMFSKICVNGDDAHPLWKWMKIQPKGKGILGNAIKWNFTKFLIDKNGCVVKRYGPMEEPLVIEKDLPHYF
Protocol: HT1080 cells were seeded in 15 cm culture dishes and allowed to adhere overnight. Then, the cells were treated with either 1 µM GDAz‐3 or an equivalent volume of DMSO for 12 h. Next, the proteasome inhibitor MG‐132 (5 µM) was added, and the cells were further incubated for 6 h. Once the incubation was completed, the cells were harvested and subjected to lysis using an IP lysis solution (#P0013J, Beyotime, Shanghai, China) to extract proteins. Then, the cell lysates were incubated with the GPX4 antibody (Proteintech, #67763‐1‐Ig, 1:100) overnight at 4 °C. Subsequently, protein A/G‐magnetic beads (#P2179, Beyotime, Shanghai, China) were added, and the mixture was incubated at 4 °C for 2 h on a rotator. After incubation, the beads were washed four times with immunoprecipitation buffer and then boiled in 1× loading buffer. The protein samples were then subjected to SDS‐PAGE analysis to evaluate the interactions between the target proteins. Finally, western blotting was used to detect proteins of interest in the co‐immunoprecipitation products. The ubiquitin assay was carried out under denaturing conditions.

GPX4 mRNA = assay: Real-time qRT-PCR of GPX4 mRNA in HT1080 cells; assay type: cell-based, human; conditions: HT1080 cells, 0.1, 0.3, 1 and 3 µM, 24 h
Protocol: Real‐time qRT‐PCR was used to determine the mRNA expression level of GPX4 gene in HT1080 cells. In brief, HT1080 cells were seeded in 6‐well plates at a density of 4.5 × 10^5 cells per well and allowed to adhere overnight. Subsequently, the cells were exposed to different concentrations of the test compound GDAz‐3 for 24 h. Total RNA from the various cell samples was extracted using an RNA‐Quick Purification Kit (#RC112, Vazyme, Nanjing, China) according to the manufacturer's instructions. The concentrations of the isolated RNA samples were determined using NanoDrop. A total of 2 µg RNA was used to synthesize cDNA using Fast‐All‐in‐One RT Kit (#RT001, ES Science, Shanghai) following the manufacturer's guidelines. Real‐time PCR was performed using 2xSuper SYBR Green QPCR Master Mix (#QP002, ES Science, Shanghai) and determined using a CFX96 PCR instrument with the following cycling conditions: 95 °C for 5 min, 95 °C for 10 s, and 60 °C for 30 s, 40 cycles. The data were analyzed by Bio‐Rad CFX Manager Software version 3.1. The primers used in this experiment were as follows: […]

HT1080 xenograft tumor = HT1080 xenograft tumor mouse model, antitumor efficacy and safety; assay type: in vivo; conditions: for TGI (tumor growth inhibition): 17 days
Protocol: Motivated by the aforementioned in vitro findings, we subsequently sought to evaluate the in vivo antitumor efficacy of GDAz‐3 using an HT1080 xenograft tumor mouse model. The tumor‐bearing mice were randomly divided into six groups, minimizing weight and tumor size differences among the groups (n = 6 in each group). The treatment group mice were administered once daily by intraperitoneal injection (IP) with GDAz‐3 at a dosage of 30 or 60 mg kg^−1, while the control group animals were treated with the corresponding solvent, ML162, and apoptozole at a dosage of 30 mg kg^−1. Additionally, we set up a drug combination group to confirm the superiority of GDAz‐3. After treatment for 17 days, animals were humanely euthanized and the tumors were excised (Figure 7B). […] The advantage of the safety of GDAz‐3 was also determined by the hematoxylin and eosin (H&E) staining. […] In general, compared with the single inhibitor or their combination, the in vivo antitumor study confirmed the efficacy and safety of GDAz‐3.
The experimental procedures of the animal experiments were permitted by the Hangzhou Institute of Medicine (HIM), Chinese Academy of Sciences (AP2024‐07‐0010). Male BALB/c nude mice (6 weeks old) were housed under pathogen‐free conditions, maintained at a constant room temperature, and fed standard rodent chow and water. An HT1080 fibrosarcoma xenograft model in nude mice was established through subcutaneous transplantation. When the tumors emerged, the mice were randomly divided into six groups with six mice in each group: GDAz‐3‐treated at 30 or 60 mg kg^−1 group and control groups, including the vehicle group, and each of the two inhibitor‐treated groups (ML162 and apoptozole) at 30 mg kg^−1, and their combinations. The mice were intraperitoneally (IP) injected daily according to their body weight. Body weight and tumor size were measured every other day, and the tumor volume and body weight were recorded every other day after drug treatment. After treatment, the animals were euthanized by cervical dislocation, and the tumor bulks were peeled off and weighed. The organ tissues (tumor, heart, liver, spleen, lung, and kidney) were harvested and fixed with 4% paraformaldehyde for hematoxylin‐eosin (H&E) and immunohistochemistry (IHC) staining. In addition, the expression of GPX4 in tumor samples was analyzed in vehicle‐ and GDAz‐3‐treated groups by western blot assay.

COc1ccc(-c2nc(-c3cc(C(F)(F)F)cc(C(F)(F)F)c3)n(Cc3ccc(C(=O)NCCOCCOCCOCCn4cc(COc5ccc(N(C(=O)CCl)C(C(=O)NCCc6ccccc6)c6cccs6)cc5Cl)nn4)cc3)c2-c2ccc(OC)cc2)cc1 (stereo not drawn) [GDAz-3, 4-((2-(3,5-bis(trifluoromethyl)phenyl)-4,5-bis(4-methoxyphenyl)-1H-imidazol-1-yl)methyl)-N-(2-(2-(2-(2-(4-((2-chloro-4-(2-chloro-N-(2-oxo-2-(phenethylamino)-1-(thiophen-2-yl)ethyl)acetamido)phenoxy)methyl)-1H-1,2,3-triazol-1-yl)ethoxy)ethoxy)ethoxy)ethyl)benzamide]
Ubiquitination of GPX4 (GPX4): obviously increase the ubiquitination of GPX4 | Level of GPX4 mRNA (GPX4 mRNA): did not significantly affect | TGI (tumor growth inhibition) (HT1080 xenograft tumor; 30 mg/kg IP once daily): 52% | TGI (tumor growth inhibition) (HT1080 xenograft tumor; 60 mg/kg IP once daily): 67% | Body weight of the mice (HT1080 xenograft tumor; 30 or 60 mg/kg IP once daily): did not obviously reduce the body weight | H&E staining of major organs (heart, liver, spleen, lung, kidney) (HT1080 xenograft tumor; GDAz-3-treated group): did not observe significant toxic changes in the major organs
